Experimental findings from BindingDB's records for doi:10.1016/j.bmc.2018.04.029 (Shenyang Pharmaceutical University, 2018) are described below.

Broadly, the EC50 is the concentration at which the effect is half-maximal.

A short description of the experiment: Inhibition of Hepatitis C virus genotype 1b NS5B RNA-dependent-RNA polymerase assessed as reduction in viral replication after 72 hrs by indirect immunofluorescence assay.
For the compound `Fc1ccc(-n2cc(Cn3ccc4nc(-c5ccccc5F)nc-4c3)nn2)cc1`, the EC50 was found to be 35 nM. As for `O=c1ccccn1Cc1ccc(-n2cc(Cn3ccc4nc(-c5ccccc5F)nc-4c3)nn2)cc1`, the figure is 93 nM; as for `COc1ccc(-n2cc(Cn3ccc4nc(-c5ccccc5F)nc-4c3)nn2)cc1`, 1.2 nM. As for `Fc1ccccc1-c1nc2ccn(Cc3cn(-c4ccccc4)nn3)cc-2n1`, the figure is 23 nM; as for `Fc1ccccc1-c1nc2ccn(Cc3cn(Cc4cn5cccnc5n4)nn3)cc-2n1`, 21 nM. Regarding `CS(=O)(=O)Nc1ccc(-n2cc(Cn3ccc4nc(-c5ccccc5F)nc-4c3)nn2)cc1`, the EC50 came to 18 nM. As for `Fc1ccccc1-c1nc2ccn(Cc3cn(-c4ccccc4F)nn3)cc-2n1`, the figure is 52 nM; as for `O=c1ncccn1Cc1ccc(-n2cc(Cn3ccc4nc(-c5ccccc5F)nc-4c3)nn2)cc1`, 96 nM; as for `COc1cccc(-n2cc(Cn3ccc4nc(-c5ccccc5F)nc-4c3)nn2)c1`, 13 nM. For `Cc1cc(C)n2cc(Cn3cc(Cn4ccc5nc(-c6ccccc6F)nc-5c4)nn3)nc2n1` the value was 37 nM; for `Cc1cc(C)n2nc(Cn3cc(Cn4ccc5nc(-c6ccccc6F)nc-5c4)nn3)nc2n1`, 84 nM.
